Laboratory results published in patent publication US20110071169A1, “Preparation of polymorphic form of lapatinib ditosylate” (MAI DE LTD, priority 2009, published 2011).

Legend:
[1] = Solubility in solvent mixtures; type: physicochemical
Experimental: The use of a relatively concentrated solution, e.g. about 5 mg/mL or above 5 mg/mL therefore is preferred.
In a preferred aspect, Form A of lapatinib ditosylate may be prepared by slurring starting material, crude or pure lapatinib ditosylate, anhydrate or solvate, which can be obtained according to the procedures described in U.S. Pat. No. 7,157,466 (or WO02/02552) with an organic solvent or a mixture of two or more organic solvents under heat. The lapatinib ditosylate is soluble in a mixture of water and THF, but not soluble in non-polar organic solvents. The preferred organic solvent is tetrahydrofuran. The concentration of lapatinib ditosylate within the solution may range from about 0.1% by weight to the saturation point. This concentration will, of course, vary depending upon the temperature at which the co-solvent solution is held, with warmer temperatures generally allowing for the preparation of more concentrated solutions of lapatinib ditosylate. Preferably, the concentration (w/w %) of lapatinib ditosylate starting material in solution is about 0.5-15%, preferably about 1-10%, more preferably about 1.5-5%. The volume ratio of tetrahydrofuran to water is about 50-95:50-5, preferably about 70-95:30-5, more preferably about 80-95:20-5, most preferably about 85:15. Water is then added into the above suspension, and the mixture is heated, suitably to a temperature in the range of from about 45° C. to 85° C., such as about 50° C. to 75° C., for example about 65-70° C. until all solid materials are dissolved. The clear and hot solution is allowed to cool down to ambient temperature, and the cooled solution is kept at ambient temperature for crystallization. The crystal Form A of lapatinib ditosylate is formed over a period of 1 hour to 4 days, and the crystal Form A is recovered from the solvent by filtration. The obtained crystal From A can be dried under a vacuum oven at about 20° C.-60° C., preferably at about 25° C.-50° C., more preferably at about 25° C.-35° C., and most preferably at […] for about 10-40 hours to remove the solvent residues.
In a preferred aspect, Form B of lapatinib ditosylate may be prepared by slurring starting material, crude or pure lapatinib ditosylate, anhydrate or solvate, which can be obtained according to the procedures described in U.S. Pat. No. 7,157,466 (or WO02/02552) with an organic solvent or a mixture of two or more organic solvents under heat. The lapatinib ditosylate is soluble in a mixture of water and THF, but not soluble in non-polar solvent. The preferred organic solvent is tetrahydrofuran. The concentration of lapatinib ditosylate within the solution may range from about 0.1% by weight to the saturation point. […]

[2] = Thermal phase stability on heating; type: physicochemical; conditions: heating of the crystalline form
[3] = Stability study of bulk material (stability-indicating HPLC, polymorphic form); conditions: elevated temperature and humidity (40° C./75%)
Experimental: The stability of Form A or Form B of lapatinib ditosylate bulk material and tablets is assessed by storing samples for up to 12 weeks at 25° C./60% RH or up to 5 weeks at 40° C./75% RH. Changes are monitored using a stability-indicating HPLC method. Results were calculated by normalized peak area (npa). Degradants are identified by comparison of their relative retention times against impurity standards.

For `CS(=O)(=O)CCNCc1ccc(-c2ccc3ncnc(Nc4ccc(OCc5cccc(F)c5)c(Cl)c4)c3c2)o1.Cc1ccc(S(=O)(=O)O)cc1` [lapatinib ditosylate, N-[3-chloro-4-[(3-fluorophenyl)methoxy]phenyl]-6-[5-[[[2-(methylsulfonyl)ethyl]amino]methyl]-2-furanyl]-4-Quinazolinamine, bis(4-methylbenzenesulfonate)], the “solubility (in words)” value ([1]; mixture of water and THF) was “soluble”, the “solubility (in words)” value ([1]; mixture of water and methanol or ethanol) was “moderately soluble” and the “concentration of complete dissolution” value ([1]; mixture of water and methanol or ethanol, room temperature) was at least 5 mg/mL. The “solubility (in words)” value ([1]; non-polar organic solvents) was “not soluble”.
In the case of `CS(=O)(=O)CCNCc1ccc(-c2ccc3ncnc(Nc4ccc(OCc5cccc(F)c5)c(Cl)c4)c3c2)o1.Cc1ccc(S(=O)(=O)O)cc1.Cc1ccc(S(=O)(=O)O)cc1` [Form B, ditosylate salt of N-[3-chloro-4-[(3-fluorophenyl)methoxy]phenyl]-6-[5-[[[2-(methylsulfonyl)ethyl]amino]methyl]-2-furanyl]-4-Quinazolinamine], the “heating temperature up to which no phase transformation occurs” value [2] is reported as “up to 45 °C”.
For `CS(=O)(=O)CCNCc1ccc(-c2ccc3ncnc(Nc4ccc(OCc5cccc(F)c5)c(Cl)c4)c3c2)o1.Cc1ccc(S(=O)(=O)O)cc1` [Form A, hydrate ditosylate salt of N-[3-chloro-4-[(3-fluorophenyl)methoxy]phenyl]-6-[5-[[[2-(methylsulfonyl)ethyl]amino]methyl]-2-furanyl]-4-Quinazolinamine], the “heating temperature up to which no phase transformation occurs” value [2] was “up to 40 °C” and the “time for which polymorph (phase) and chemical stability was demonstrated” value [3] was “over 5 weeks”.
